In patent US10821100B2, “Triazolone compounds as mPGES-1 inhibitors” (Glenmark Pharmaceuticals S.A., priority 2012, dated 2020):

Target: T1, Recombinant human mPGES-1 (Homo sapiens, UniProt O14684)
T1 construct: made in house; host or cells: CHO cells (crude microsomal fractions)
T1 sequence (O14684 1-152): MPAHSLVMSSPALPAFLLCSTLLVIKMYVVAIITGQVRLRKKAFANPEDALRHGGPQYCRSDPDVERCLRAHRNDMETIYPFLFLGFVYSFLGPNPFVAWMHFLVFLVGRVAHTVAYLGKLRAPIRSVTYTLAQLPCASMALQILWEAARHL
Assay: In-vitro screening of mPGES-1 inhibitors (inhibition of PGE2 formation from PGH2, HTRF detection)
Assay type: biochemical
Details: mPGES-1 enzyme; for inhibition at 1 µM: 1 μM test compound, read-out: Percentage inhibition at 1 μM; for inhibition at 1 µM / inhibition at 10 µM: crude microsomal fractions; for inhibition at 10 µM: 10 μM test compound, read-out: Percentage inhibition at 10 μM; for IC50: class symbols
In short: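 Crude CHO-expressed microsomes (40–60 μg/mL protein) preincubated 10 min with compound in 0.1 M potassium phosphate/2 mM EDTA containing 2.5 mM GSH, 0.5% DMSO final. PGH2 (15 μM) reacted 1 min, stopped with stannous chloride. PGE2 quantified by HTRF, IC50 from nonlinear regression of percent inhibition.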

SMILES | inhibition at 1 µM | inhibition at 10 µM | IC50
Cc1ccc(-n2nc(-c3cc(CNC(=O)C(C)(C)C)c(F)cc3Cl)[nH]c2=O)cc1Cl [Example-135, N-(4-Chloro-5-(1-(3-chloro-4-methylphenyl)-4,5-dihydro-5-oxo-1H-1,2,4-triazol-3-yl)-2-fluorobenzyl)pivalamide] | 92.3% | 98.9% | < 50 nM
CC(C)(C)C(=O)NCc1ccc(Cl)c(-n2nc(-c3c(F)cccc3Cl)[nH]c2=O)c1F [Example-88, N-(4-Chloro-3-(3-(2-chloro-6-fluorophenyl)-5-oxo-4,5-dihydro-1H-1,2,4-triazol-1-yl)-2-fluorobenzyl)pivalamide] | 3.34% | 39.2% | –
CC(C)(C)C(=O)NCc1cc(-c2nn(-c3ccc(F)c(Cl)c3)c(=O)[nH]2)c(Cl)cc1F [Example-131, N-(4-Chloro-5-(1-(3-chloro-4-fluorophenyl)-4,5-dihydro-5-oxo-1H-1,2,4-triazol-3-yl)-2-fluorobenzyl)pivalamide] | 100% | 99.2% | < 50 nM
O=C(NCc1cc(-c2nn(-c3ccc(Cl)cc3)c(=O)[nH]2)c(Cl)cc1F)c1ccccc1F [Example-132, N-(4-Chloro-5-(1-(4-chlorophenyl)-4,5-dihydro-5-oxo-1H-1,2,4-triazol-3-yl)-2-fluorobenzyl)-2-fluorobenzamide] | 91.8% | 89.8% | < 50 nM
Cc1csc(-c2ccc(-n3nc(-c4c(F)cccc4-c4cc(C)cs4)[nH]c3=O)cc2)c1 [Example-4, 5-[2-Fluoro-6-(4-methylthiophen-2-yl)phenyl]-2-[4-(4-methylthiophen-2-yl)phenyl]-2,4-dihydro-3H-1,2,4-triazol-3-one] | 46.4% | 69.7% | –
CC(C)(C)C(=O)NCc1ccc(Cl)c(-c2nn(-c3ccc(Cl)c(F)c3)c(=O)[nH]2)c1 [Example-123, N-(4-Chloro-3-(1-(4-chloro-3-fluorophenyl)-4,5-dihydro-5-oxo-1H-1,2,4-triazol-3-yl)benzyl)pivalamide] | 93.8% | 100% | < 50 nM
Cc1ccc(CNC(=O)[C@H]2CCCO2)c(C)c1-c1nn(-c2ccc(C(F)(F)F)cc2)c(=O)[nH]1 [Example-107, (R)—N-(2,4-Dimethyl-3-(5-oxo-1-(4-(trifluoromethyl)phenyl)-4,5-dihydro-1H-1,2,4-triazol-3-yl)benzyl)tetrahydrofuran-2-carboxamide] | 56.1% | 90.5% | –
COc1ccc(-n2nc(-c3c(F)cccc3Cl)[nH]c2=O)cc1C(=O)NCC1CC1 [Example-19, 5-[3-(2-Chloro-6-fluorophenyl)-5-oxo-4,5-dihydro-1H-1,2,4-triazol-1-yl]-N-(cyclopropylmethyl)-2-methoxybenzamide] | 5.11% | 29.7% | –
COc1cc(-n2nc(-c3c(F)cccc3Cl)[nH]c2=O)ccc1C(=O)Nc1cc(C(F)(F)F)ccc1F [Example-36, 4-(3-(2-Chloro-6-fluorophenyl)-5-oxo-4,5-dihydro-1H-1,2,4-triazol-1-yl)-N-(2-fluoro-5-(trifluoromethyl)phenyl)-2-methoxybenzamide] | 97.3% | 98.9% | < 50 nM
O=c1[nH]c(-c2c(F)cccc2Cl)nn1-c1ccc(-c2nc(-c3ccc(Cl)cc3)no2)cc1 [Example-51, 3-(2-Chloro-6-fluorophenyl)-1-(4-(3-(4-chlorophenyl)-1,2,4-oxadiazol-5-yl)phenyl)-1H-1,2,4-triazol-5(4H)-one] | 88.3% | 86% | < 50 nM
O=C(NCc1ccc(Cl)c(-n2nc(-c3ccc(C#Cc4cccc(Cl)c4F)cc3F)[nH]c2=O)c1)C1CC1 [Example-81, N-(4-Chloro-3-(3-(4-((3-chloro-2-fluorophenyl)ethynyl)-2-fluorophenyl)-5-oxo-4,5-dihydro-1H-1,2,4-triazol-1-yl)benzyl)cyclopropanecarboxamide] | 99.8% | 98% | < 50 nM
COc1cc(-n2nc(-c3c(F)cccc3Cl)[nH]c2=O)ccc1C#Cc1ccc(C(F)(F)F)cc1Cl [Example-61, 1-(4-((2-Chloro-4-(trifluoromethyl)phenyl)ethynyl)-3-methoxyphenyl)-3-(2-chloro-6-fluorophenyl)-1H-1,2,4-triazol-5(4H)-one] | 92.4% | 96.8% | < 50 nM
COc1cc(-n2nc(-c3c(Cl)cccc3Cl)[nH]c2=O)ccc1C(=O)Nc1cccc(C(F)(F)F)c1 [Example-42, 4-(3-(2,6-Dichlorophenyl)-5-oxo-4,5-dihydro-1H-1,2,4-triazol-1-yl)-2-methoxy-N-(3-(trifluoromethyl)phenyl)benzamide] | 96.5% | 99.7% | < 50 nM
COc1cc(-n2nc(-c3c(F)cccc3Cl)[nH]c2=O)ccc1C(=O)NCc1ccccc1C(F)(F)F [Example-25, 4-[3-(2-Chloro-6-fluorophenyl)-5-oxo-4,5-dihydro-1H-1,2,4-triazol-1-yl]-2-methoxy-N-[2-(trifluoromethyl)benzyl]benzamide] | 74.4% | 88.9% | > 100 nM

Now from value to compound:

inhibition at 1 µM | inhibition at 10 µM | IC50 | SMILES
91.9% | 99% | > 100 nM | Cc1cc(C)n(Cc2ccc(-c3nn(-c4cc(CNC(=O)C(C)(C)C)ccc4Cl)c(=O)[nH]3)cc2)n1 [Example-172, N-(4-Chloro-3-(4,5-dihydro-3-(4-((3,5-dimethyl-1H-pyrazol-1-yl)methyl)phenyl)-5-oxo-1,2,4-triazol-1-yl)benzyl)pivalamide]
97.9% | 99.5% | < 50 nM | Cc1ccc(CNC(=O)C(C)(C)C)c(C)c1-c1nn(-c2ccc(C#CC3CC3)cc2)c(=O)[nH]1 [Example-165, N-(3-(1-(4-(2-Cyclopropylethynyl)phenyl)-4,5-dihydro-5-oxo-1H-1,2,4-triazol-3-yl)-2,4-dimethylbenzyl)pivalamide]
98% | 99.4% | < 50 nM | CC(C)C(=O)NCc1ccc(Cl)c(-c2nn(-c3ccc(C(F)(F)F)c(F)c3)c(=O)[nH]2)c1 [Example-161, N-(4-Chloro-3-(1-(3-fluoro-4-(trifluoromethyl)phenyl)-4,5-dihydro-5-oxo-1H-1,2,4-triazol-3-yl)benzyl)isobutyramide]
98.3% | 94.6% | < 50 nM | CC(C)C(=O)NCc1ccc(Cl)c(-n2nc(-c3ccc(C#CC(C)(C)C)c(F)c3)[nH]c2=O)c1 [Example-149, N-(4-Chloro-3-(3-(3-fluoro-4-(3,3-dimethylbut-1-ynyl)phenyl)-4,5-dihydro-5-oxo-1,2,4-triazol-1-yl)benzyl)isobutyramide]
93.5% | 100% | > 100 nM | CC(C)(CO)C(=O)NCc1ccc(Cl)c(-n2nc(-c3ccc(C#CC4CC4)cc3)[nH]c2=O)c1 [Example-191, N-(4-Chloro-3-(3-(4-(cyclopropylethynyl)phenyl)-5-oxo-4,5-dihydro-1H-1,2,4-triazol-1-yl)benzyl)-3-hydroxy-2,2-dimethylpropanamide]
89.5% | 99.3% | 50 to 100 nM | CC(C)S(=O)(=O)NCc1cnc(C(F)F)c(-c2nn(-c3ccc(C(F)(F)F)cc3)c(=O)[nH]2)c1 [Example-188, N-((6-(Difluoromethyl)-5-(5-oxo-1-(4-(trifluoromethyl)phenyl)-4,5-dihydro-1H-1,2,4-triazol-3-yl)pyridin-3-yl)methyl)propane-2-sulfonamide]
97.2% | 94% | < 50 nM | CC(C)(C)C(=O)NCc1ccc(Cl)c(-c2nn(-c3cccc(C(F)(F)F)c3)c(=O)[nH]2)c1 [Example-142, N-(4-Chloro-3-(1-(3-(trifluoromethyl)phenyl)-4,5-dihydro-5-oxo-1H-1,2,4-triazol-3-yl)benzyl)pivalamide]
93.4% | 93.1% | < 50 nM | CC(C)(C)C#Cc1ccc(-c2nn(-c3cc(CNC(=O)C(C)(C)C)c(F)cc3Cl)c(=O)[nH]2)cc1 [Example-137, N-(4-Chloro-2-fluoro-5-(4,5-dihydro-3-(4-(3,3-dimethylbut-1-ynyl)phenyl)-5-oxo-1,2,4-triazol-1-yl)benzyl)pivalamide]
99.3% | 99.3% | < 50 nM | CC(C)(CF)C(=O)NCc1cnc(C(F)F)c(-c2nn(-c3ccc(C(F)(F)F)cc3)c(=O)[nH]2)c1 [Example-192, 3-Fluoro-N-((6-(difluoromethyl)-5-(1-(4-(trifluoromethyl)phenyl)-4,5-dihydro-5-oxo-1H-1,2,4-triazol-3-yl)pyridin-3-yl)methyl)-2,2-dimethylpropanamide]
97.4% | 98.1% | < 50 nM | Cc1ccc(-n2nc(-c3cc(CNC(=O)C(C)(C)C)ccc3Cl)[nH]c2=O)cc1Cl [Example-140, N-(4-Chloro-3-(1-(3-chloro-4-methylphenyl)-4,5-dihydro-5-oxo-1H-1,2,4-triazol-3-yl)benzyl)pivalamide]
100% | 98.9% | < 50 nM | CC(C)(C)C(=O)NCc1ccc(Cl)c(-n2nc(-c3ccc(C#CC4CC4)cc3F)[nH]c2=O)c1 [Example-168, N-(4-Chloro-3-(3-(4-(2-cyclopropylethynyl)-2-fluorophenyl)-4,5-dihydro-5-oxo-1,2,4-triazol-1-yl)benzyl)pivalamide]
